Here are results for 14 compounds from US20250114460A1, “NOVEL PLK1 DEGRADATION INDUCING COMPOUND” (UPPTHERA, INC., priority 2021, published 2025).

SMILES strings stand for the structures.

The target of this experiment is T1, PLK1 (Homo sapiens, UniProt P53350).
T1 construct: endogenous in cells; host or cells: HeLa LgBit (Plk1-HiBit KI): HeLa stably expressing LgBit, with a CRISPR/Cas9 knock-in of HiBit at the endogenous PLK1 locus
T1 sequence (P53350 whole entry): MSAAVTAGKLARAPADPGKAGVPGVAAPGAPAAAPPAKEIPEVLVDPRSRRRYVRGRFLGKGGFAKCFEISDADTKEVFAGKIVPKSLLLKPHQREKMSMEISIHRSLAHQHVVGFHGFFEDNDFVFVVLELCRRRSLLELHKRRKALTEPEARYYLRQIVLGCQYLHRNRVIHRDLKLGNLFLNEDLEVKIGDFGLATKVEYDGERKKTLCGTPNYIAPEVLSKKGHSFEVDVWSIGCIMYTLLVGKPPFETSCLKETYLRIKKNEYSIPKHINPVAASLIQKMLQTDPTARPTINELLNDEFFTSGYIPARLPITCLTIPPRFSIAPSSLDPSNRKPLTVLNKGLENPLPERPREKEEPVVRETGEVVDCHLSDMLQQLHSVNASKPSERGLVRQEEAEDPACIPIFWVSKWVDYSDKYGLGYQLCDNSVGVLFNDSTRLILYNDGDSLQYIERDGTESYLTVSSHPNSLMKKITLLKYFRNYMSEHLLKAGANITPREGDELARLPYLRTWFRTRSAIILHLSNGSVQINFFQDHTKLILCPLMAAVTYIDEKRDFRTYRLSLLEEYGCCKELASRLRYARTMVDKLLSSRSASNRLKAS
Kind of experiment: Luciferase assay for PLK1 in HeLa LgBit (Plk1-HiBit KI) cell line. The experiment is classed as cell-based. The note with it: 300 nM compound, luminescence after 9 hours. As for the experimental part:
2. Luciferase Assay for PLK1
(1) Preparation and Culture of HeLa LgBit (Plk1-HiBit KI) Cell Line
A HeLa cell line in which the LgBit vector was transfected and expressed stably was prepared. Then, after constructing gRNA and donor to express the HiBit amino acid sequence behind the C-terminal of the Plk1 gene, which was inherent in the cell, it was inserted into the cell together with a vector capable of expressing CRISPR/Cas9. Only the cells in which the insertion was completed and knock-in had progressed were selected, sub-cultured and used.
(2) Treatment of Compounds of the Present Invention and Method of Luciferase Assay
In the case of HeLa LgBit (Plk1-HiBit KI), the compounds were treated after being released after thymidine block, and the process was as follows. Thymidine (Sigma-Aldrich Cat. No. T9250-5G) was completely dissolved in DW and used in the experiment. For thymidine block, the products were treated with 2 mM of thymidine and then incubated for 24 hours. For release and chemical treatment, the medium was suctioned and washed with 1×PBS. TrypLE™ was added and incubated in 37° C. CO2 incubator for 5 min. Cells neutralized by adding complete media were counted through a counter. For each well of a 96-well culture plate (SPL), 3.3×10^4 cells and a total medium volume of 150 μL were seeded and incubated in a CO2 incubator.
Each cell line was incubated in a CO2 incubator for 18 hours, and Endurazine was added to each well to make up 4% of the total volume. After adding the compound of the present invention in a 96-well white plate (SPL) to a concentration of 300 nM, the wavelength of the plate reader (BMG Labtech, CLARIOstar Plus) was set to […], and then the luminescence was tracked in real time.
In Table 2, Activity represents the ratio of the luminescense value of each Exemplary Compound treatment group to DMSO treatment group (+++: <0.3, ++<0.6, +<0.7).
Background: With HiBiT, luminescence reflects the tagged protein that the partner subunit can reach.
As to `COc1cc(C(=O)N2CCN(CCCCN3CCN(c4cccc5c4C(=O)N(C4CCC(=O)NC4=O)C5=O)CC3)CC2)ccc1Nc1ncc2c(n1)N(C1CCCC1)CC(F)(F)C(=O)N2C` (centres unmarked) [Compound 88, 4-(4-(4-(4-(4-((9-cyclopentyl-7,7-difluoro-5-methyl-6-oxo-6,7,8,9-tetrahydro-5H-pyrimido[4,5-b][1,4]diazepin-2-yl)amino)-3-methoxybenzoyl)piperazin-1-yl)butyl)piperazin-1-yl)-2-(2,6-dioxopiperidin-3-yl)isoindoline-1,3-dione], the “Activity: ratio of the luminescense value of each Exemplary Compound treatment group to DMSO treatment group” value (from here on “Activity: ratio”) is listed as “++ (++<0.6)”. The same measure for `COc1cc(C(=O)N2CCC(CN3CCN(c4cccc5c4C(=O)N(C4CCC(=O)NC4=O)C5=O)CC3)CC2)ccc1Nc1ncc2c(n1)N(C1CCCC1)CC(F)(F)C(=O)N2C` (centres unmarked) [Compound 93, 4-(4-((1-(4-((9-cyclopentyl-7,7-difluoro-5-methyl-6-oxo-6,7,8,9-tetrahydro-5H-pyrimido[4,5-b][1,4]diazepin-2-yl)amino)-3-methoxybenzoyl)piperidin-4-yl)methyl)piperazin-1-yl)-2-(2,6-dioxopiperidin-3-yl)isoindoline-1,3-dione]: “++ (++<0.6)”. Consider `COc1cc(C(=O)N2CCC(CCCN3CCN(c4cccc5c4C(=O)N(C4CCC(=O)NC4=O)C5=O)CC3)CC2)ccc1Nc1ncc2c(n1)N(C1CCCC1)CC(F)(F)C(=O)N2C` (centres unmarked) [Compound 95, 4-(4-(3-(1-(4-((9-cyclopentyl-7,7-difluoro-5-methyl-6-oxo-6,7,8,9-tetrahydro-5H-pyrimido[4,5-b][1,4]diazepin-2-yl)amino)-3-methoxybenzoyl)piperidin-4-yl)propyl)piperazin-1-yl)-2-(2,6-dioxopiperidin-3-yl)isoindoline-1,3-dione], for which the “Activity: ratio” value is reported as “++ (++<0.6)”.

On to `COc1cc(C(=O)N2CCC(CCCCN3CCN(c4cccc5c4C(=O)N(C4CCC(=O)NC4=O)C5=O)CC3)CC2)ccc1Nc1ncc2c(n1)N(C1CCCC1)CC(F)(F)C(=O)N2C` (centres unmarked) [Compound 96, 4-(4-(4-(1-(4-((9-cyclopentyl-7,7-difluoro-5-methyl-6-oxo-6,7,8,9-tetrahydro-5H-pyrimido[4,5-b][1,4]diazepin-2-yl)amino)-3-methoxybenzoyl)piperidin-4-yl)butyl)piperazin-1-yl)-2-(2,6-dioxopiperidin-3-yl)isoindoline-1,3-dione], for which the “Activity: ratio” value was “++ (++<0.6)”. Then `COc1cc(C(=O)N2CCC(CCCCN3CCN(c4ccc5c(c4)C(=O)N(C4CCC(=O)NC4=O)C5=O)CC3)CC2)ccc1Nc1ncc2c(n1)N(C1CCCC1)CC(F)(F)C(=O)N2C` (centres unmarked) [Compound 100, 5-(4-(4-(1-(4-((9-cyclopentyl-7,7-difluoro-5-methyl-6-oxo-6,7,8,9-tetrahydro-5H-pyrimido[4,5-b][1,4]diazepin-2-yl)amino)-3-methoxybenzoyl)piperidin-4-yl)butyl)piperazin-1-yl)-2-(2,6-dioxopiperidin-3-yl)isoindoline-1,3-dione], with “++ (++<0.6)”. The same measure for `COc1cc(C(=O)N2CCC(CN3CCN(c4cc5c(cc4F)C(=O)N(C4CCC(=O)NC4=O)C5=O)CC3)CC2)ccc1Nc1ncc2c(n1)N(C1CCCC1)CC(F)(F)C(=O)N2C` (centres unmarked) [Compound 101, 5-(4-((1-(4-((9-cyclopentyl-7,7-difluoro-5-methyl-6-oxo-6,7,8,9-tetrahydro-5H-pyrimido[4,5-b][1,4]diazepin-2-yl)amino)-3-methoxybenzoyl)piperidin-4-yl)methyl)piperazin-1-yl)-2-(2,6-dioxopiperidin-3-yl)-6-fluoroisoindoline-1,3-dione]: “++ (++<0.6)”; for `COc1cc(C(=O)NC2CC(N(C)CC3CCN(c4ccc5c(c4)C(=O)N(C4CCC(=O)NC4=O)C5=O)CC3)C2)ccc1Nc1ncc2c(n1)N(C1CCCC1)CC(F)(F)C(=O)N2C` (centres unmarked) [Compound 104, 4-((9-cyclopentyl-7,7-difluoro-5-methyl-6-oxo-6,7,8,9-tetrahydro-5H-pyrimido[4,5-b][1,4]diazepin-2-yl)amino)-N-(3-(((1-(2-(2,6-dioxopiperidin-3-yl)-1,3-dioxoisoindolin-5-yl)piperidin-4-yl)methyl)(methyl)amino)cyclobutyl)-3-methoxybenzamide]: “++ (++<0.6)”. As to `COc1cc(C(=O)NC2CC(N(C)CC3CCN(c4cccc5c4C(=O)N(C4CCC(=O)NC4=O)C5=O)CC3)C2)ccc1Nc1ncc2c(n1)N(C1CCCC1)CC(F)(F)C(=O)N2C` (centres unmarked) [Compound 105, 4-((9-cyclopentyl-7,7-difluoro-5-methyl-6-oxo-6,7,8,9-tetrahydro-5H-pyrimido[4,5-b][1,4]diazepin-2-yl)amino)-N-(3-(((1-(2-(2,6-dioxopiperidin-3-yl)-1,3-dioxoisoindolin-4-yl)piperidin-4-yl)methyl)(methyl)amino)cyclobutyl)-3-methoxybenzamide], the “Activity: ratio” value was “++ (++<0.6)”.

Turning to `COc1cc(N2CCC(CN3CCN(c4ccc5c(c4)C(=O)N(C4CCC(=O)NC4=O)C5=O)CC3)CC2)c(F)cc1Nc1ncc2c(n1)N(C1CCCC1)CC(F)(F)C(=O)N2C` (centres unmarked) [Compound 111, 5-(4-((1-(4-((9-cyclopentyl-7,7-difluoro-5-methyl-6-oxo-6,7,8,9-tetrahydro-5H-pyrimido[4,5-b][1,4]diazepin-2-yl)amino)-2-fluoro-5-methoxyphenyl)piperidin-4-yl)methyl)piperazin-1-yl)-2-(2,6-dioxopiperidin-3-yl)isoindoline-1,3-dione], the “Activity: ratio” value is “+ (+<0.7)”. Turning to `COc1cc(N2CCC(CCN3CCN(c4ccc5c(c4)C(=O)N(C4CCC(=O)NC4=O)C5=O)CC3)CC2)c(F)cc1Nc1ncc2c(n1)N(C1CCCC1)CC(F)(F)C(=O)N2C` (centres unmarked) [Compound 112, 5-(4-(2-(1-(4-((9-cyclopentyl-7,7-difluoro-5-methyl-6-oxo-6,7,8,9-tetrahydro-5H-pyrimido[4,5-b][1,4]diazepin-2-yl)amino)-2-fluoro-5-methoxyphenyl)piperidin-4-yl)ethyl)piperazin-1-yl)-2-(2,6-dioxopiperidin-3-yl)isoindoline-1,3-dione], the “Activity: ratio” value is “+ (+<0.7)”. On to `COc1cc(C(=O)N[C@H]2CC[C@H](OC3CCN(c4ccc5c(c4)C(=O)N(C4CCC(=O)NC4=O)C5=O)CC3)CC2)c(F)cc1Nc1ncc2c(n1)N(C1CCCC1)CC(F)(F)C(=O)N2C` (some centres unmarked) [Compound 116, 4-((9-cyclopentyl-7,7-difluoro-5-methyl-6-oxo-6,7,8,9-tetrahydro-5H-pyrimido[4,5-b][1,4]diazepin-2-yl)amino)-N-((1r,4r)-4-((1-(2-(2,6-dioxopiperidin-3-yl)-1,3-dioxoisoindolin-5-yl)piperidin-4-yl)oxy)cyclohexyl)-2-fluoro-5-methoxybenzamide], for which the “Activity: ratio” value is on record as “++ (++<0.6)”. Then `COc1cc(C(=O)NC2CCCN(CC3CCN(c4cccc5c4C(=O)N(C4CCC(=O)NC4=O)C5=O)CC3)C2)ccc1Nc1ncc2c(n1)N(C1CCCC1)CC(F)(F)C(=O)N2C` (centres unmarked) [Compound 126, 4-((9-cyclopentyl-7,7-difluoro-5-methyl-6-oxo-6,7,8,9-tetrahydro-5H-pyrimido[4,5-b][1,4]diazepin-2-yl)amino)-N-(1-((1-(2-(2,6-dioxopiperidin-3-yl)-1,3-dioxoisoindolin-4-yl)piperidin-4-yl)methyl)piperidin-3-yl)-3-methoxybenzamide], with “+ (+<0.7)”; and `COc1cc(C(=O)Nc2ccc(OCCN3CCN(c4cccc5c4C(=O)N(C4CCC(=O)NC4=O)C5=O)CC3)cc2)c(F)cc1Nc1ncc2c(n1)N(C1CCCC1)CC(F)(F)C(=O)N2C` (centres unmarked) [Compound 141, 4-((9-cyclopentyl-7,7-difluoro-5-methyl-6-oxo-6,7,8,9-tetrahydro-5H-pyrimido[4,5-b][1,4]diazepin-2-yl)amino)-N-(4-(2-(4-(2-(2,6-dioxopiperidin-3-yl)-1,3-dioxoisoindolin-4-yl)piperazin-1-yl)ethoxy)phenyl)-2-fluoro-5-methoxybenzamide], with “++ (++<0.6)”; and `COc1cc(C(=O)NC2CCCC(N(C)C3CCN(c4cccc5c4C(=O)N(C4CCC(=O)NC4=O)C5=O)CC3)C2)ccc1Nc1ncc2c(n1)N(C(C)C)CC(F)(F)C(=O)N2C` (centres unmarked) [Compound 166, 4-((7,7-difluoro-9-isopropyl-5-methyl-6-oxo-6,7,8,9-tetrahydro-5H-pyrimido[4,5-b][1,4]diazepin-2-yl)amino)-N-(3-((1-(2-(2,6-dioxopiperidin-3-yl)-1,3-dioxoisoindolin-4-yl)piperidin-4-yl)(methyl)amino)cyclohexyl)-3-methoxybenzamide], with “+ (+<0.7)”.
